According to patent US11279708B2, “Amidino- and amino-rocaglates as novel translation inhibitors and anticancer agents” (priority 2019, dated 2022):

Experiments:
HEK 293 cells = experiment: in cellula translation of transfected (AG)10- and (UC)10-FF/HCV/Ren mRNA; assay type: cell-based; conditions: compound added 1 h after mRNA transfection, 6 h exposure
Source text: We next asked if differences in behavior among rocaglates towards the (AG)10- and (UC)10-reporters observed in vitro also extended in cellula (FIG. 26B). This was important since in cells, mRNA transcripts need to compete for components of the translation initiation machinery from a complex cellular mRNA pool and this scenario is difficult to recapitulate in experiments using cell-free extracts. Following mRNA transfections, cells were exposed to compound and luciferase activity determined.
RNA Transfections. HEK 293 cells were transfected in a 24 well plate with 0.25 μg/well of in vitro synthesized capped m^7GpppG(AG)10-FF/HCV/Ren or m^7GpppG(UC)10FF/HCV/Ren mRNA and 1 h later were exposed to the indicated concentrations of compounds for an additional 6 h. Following this, extracts were prepared using passive lysis buffer (PLB, Promega) and luciferase activity measured on a Berthold Lumt LB 9507 luminometer.
FIGS. 26A-26B. In cellula activity of rocaglates. 26A. Cytotoxicity of rocaglates towards NIH/3T3 (grey circle) and the NIH/3T3 rocaglate-resistant line, eIF4A^em1JP(redtriangle). Cells were exposed to 40 nM compound for 4 days and viability was measured using the SRB assay. n=3±SD. 26B. Rocaglates show different sequence preferences for inhibiting cap-dependent translation in cellula. HEK 293 cells were transfected with 0.5 μg of in vitro synthesized capped (AG)10-FF/HCV/Ren or (UC)10-FF/HCV/Ren mRNA and 1h later exposed to the indicated concentrations of compounds for an additional 6 h, at which time extracts were prepared and luciferase activity measured. n=3 SD.
FIG. 28. In cellula dose-response of (AG)10- and (UC)10-FF/HCV/Ren mRNAs to hippuristanol and pateamine. Firefly and renilla luciferase activity in response to the indicated compound concentrations (relative to DMSO controls) following mRNA transfections in 293 cells. n=3±SD.

eIF4A1:poly r(AG)8 RNA = molecular target: T1, eIF4A1:poly r(AG)8 RNA (Homo sapiens, UniProt P60842); experiment: fluorescence polarization (FP) assay, eIF4A1 binding to FAM-labelled RNA; conditions: 500 nM eIF4A1, 10 nM FAM-labelled RNA, screen at 10 μM compound
T1 construct: His6 (N); made in house; host or cells: E. coli BL21 (DE3)
Source text: Rocaglates similarly enhance RNA binding of eIF4A1 and eIF4A2. In order to rapidly evaluate the ability of rocaglates to stimulate binding of eIF4A to RNA, a fluorescence polarization (FP) assay using a FAM (fluorescein amidite)-labelled RNA probe (FIG. 18A) was used. […] Due to the high degree of shared amino acid identity between the two paralogs, their apparent similarity with respect to RNA binding activity and response to CR-1-31-B (23), and the fact that eIF4A1 is essential but eIF4A2 is not, eIF4A1 was used in the majority of our subsequent experiments.
Fluorescence Polarization (FP) Assays. Unless otherwise specified, eIF4A (500 nM) was incubated with 10 nM FAM-labelled RNA for 30 min in FP buffer (14.4 mM HEPES-NaOH (pH 8), 108 mM NaCl, 1 mM MgCl2, 14.4% glycerol, 0.1% DMSO, 2 mM DTT, 1 mM AMPPNP) at room temperature in black low volume 384 well plates (Corning 3820). FP readings were performed on a Pherastar FS microplate reader (BMG Labtech).
FIGS. 19A-19C. Rocaglate activity profiling. 19A. Assessing eIF4A1:poly r(AG)8 (SEQ ID NO: 2) RNA binding by FP in the presence of 10 μM rocaglate. Values are expressed relative to vehicle controls and data is rank ordered. n=3±SD. 19B. The change in polarization obtained with eIF4A1:poly r(AG)8 (SEQ ID NO: 2) and eIF4A2:poly r(AG)8 (SEQ ID NO: 2) RNA. Pearson r=0.814; p<0.0001. 19C. Inhibition of cap-dependent translation by rocaglates was measured using the indicated mRNA bicistronic reporter (4 ng/ul) in Krebs-2 extracts at a final compound concentration of 2 μM. n=3±SD.
FIG. 21. Assessing stimulation of eIF4A1:RNA binding by rocaglates and pateamine. FAM-labelled RNA was incubated in the presence of 500 nM eIF4A1 and the indicated concentrations of compound for 30 min, after which time FP measurements were taken. Limitations in WGD-57-591 availability prevented us from extending the titrations to 100 μM. The change in FP obtained relative to vehicle controls is presented. n=3±SD. FP results of competition assays in which preformed eIF4A1:rocaglate:FAM-poly r(AG)10 complexes were incubated in the presence of poly r(AG)10 (SEQ ID NO: 39) and dissociation measured as a function of time. n=3±SD.

T1 sequence (P60842 whole entry, species assumed): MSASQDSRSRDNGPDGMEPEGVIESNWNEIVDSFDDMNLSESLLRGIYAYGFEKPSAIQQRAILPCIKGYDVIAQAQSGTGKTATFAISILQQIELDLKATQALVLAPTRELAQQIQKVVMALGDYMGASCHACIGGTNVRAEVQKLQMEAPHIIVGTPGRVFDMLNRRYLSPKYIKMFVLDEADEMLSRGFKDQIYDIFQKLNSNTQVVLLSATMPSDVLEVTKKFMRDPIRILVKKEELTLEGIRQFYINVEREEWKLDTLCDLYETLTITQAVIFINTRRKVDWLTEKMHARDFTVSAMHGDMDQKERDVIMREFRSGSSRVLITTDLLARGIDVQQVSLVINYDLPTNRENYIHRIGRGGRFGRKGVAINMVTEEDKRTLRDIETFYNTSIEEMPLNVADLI

| SMILES | inhibition of (AG)10 versus (UC)10 reporter in cellula (in words) (HEK 293 cells) | stimulation of eIF4A1:RNA binding (in words) (eIF4A1:poly r(AG)8 RNA) | stimulation of eIF4A1:RNA binding (in words) (eIF4A1:poly r(AG)8 RNA; listed as Silvestrol) |
| --- | --- | --- | --- |
| CONC(=O)[C@H]1[C@@H](O)[C@@]2(O)c3c(OC)cc(OC)cc3O[C@@]2(c2ccc(OC)cc2)[C@@H]1c1ccccc1 [CR-1-31-B] | showed preference for inhibiting (AG)10-FF/HCV/Ren over (UC)10-FF/HCV/Ren mRNA | preferentially stimulated binding of eIF4A1 to RNA harboring polypurine bases | – |
| COC(=O)[C@@H]1[C@@H](c2ccccc2)[C@]2(c3ccc(OC)cc3)Oc3cc(OC)cc(OC)c3[C@@]23N=C(C)N[C@@]13O [9b] | slight preference for inhibiting the (AG)10-FF/HCV/Ren reporter mRNA | – | – |
| COC(=O)[C@H]1[C@@H](O)[C@@]2(O)c3c(OC)cc(O[C@@H]4O[C@@H]([C@H](O)CO)CO[C@H]4OC)cc3O[C@@]2(c2ccc(OC)cc2)[C@@H]1c1ccccc1 [silvestrol] | inhibited both reporters equally | less potent across the concentrations tested | relatively weak activity |
| COc1ccc([C@@]23Oc4cc(OC)cc(OC)c4[C@]2(O)[C@H](O)[C@H](C(=O)N(C)C)[C@H]3c2ccccc2)cc1 [RocA, rocaglamide A] | – | activity similar to CR-1-31-B | – |
